The results in this text go back to patent publication US9346829B2, “5-HT3 receptor antagonists” (Takeda Phamaceutical Company Limited, priority 2012, dated 2016).

Structures can show the parent of a compound that is named as a salt. Where two headings read alike, the source gives them in different places.

Test [1] addresses 5-HT3a receptor (Homo sapiens (Human), UniProt P46098). In words: Inhibition of Ca flux activity of 5-HT3 in vitro assay. The class given is cell-based. The procedure: The 5-HT3 antagonist activity of the compounds of the invention was determined by measuring the ability of the compounds to inhibit the calcium flux activity of […] receptor expressed in HEK-293T cells. HEK-293T cells were transfected with the 5-HT3a expression construct using Xtreme Gene 9 (Roche) in 150 mm tissue culture treated plates and incubated for 24 hours at 37° C. Cells were then split and plated at a density of 60K cells/well in poly-lysine coated, black 96-well plates with clear bottoms (BD BioSciences) and incubated overnight at 37° C. Growth media was removed and cells loaded with 200 uL calcium indicator dye in HBSS containing 20 mM HEPES (Calcium 5 Assay kit, Molecular Devices) and incubated at 37° C. for 1 hour. While cells were incubating, the 10× antagonist and agonist/antagonist addition plates were made. For 10× antagonist plate: half log serial dilutions (final concentrations range from 10^−7 through 10^−10 with the bottom well a negative, no ligand control) were made from test compounds in DMSO at a 1000× concentration and then diluted to 10× in HBSS/20 mM HEPES. For addition plate: 5HT was diluted to 100× in HBSS/20 mM HEPES (final concentration in the assay—216 nM) and 15 uL was added to each well of the addition plate, 15 uL of 10× compound was also added to the addition plate, and finally 120 uL of HBSS/20 mM HEPES (for a total of 150 uL). Cells were then removed from the incubator and equilibrated to room temperature for 10 minutes, then 22.5 uL of 10× test compounds were added in triplicate to the plates and incubated at room temperature for 10 minutes (Tropisetron was used as a positive control in every assay). Test plate and addition plate were loaded into the FlexStation III (Molecular Devices), and using the fluidics, 22.5 uL compound additions were made (at t=˜17 seconds), and fluorescence was measured for 90 seconds, reading every 2.2 seconds. Data sets were analyzed as max minus min using Software Max Pro (Molecular Devices). IC50 curves were generated using non-linear regression in GraphPad Prism.

Test [2] concerns the target nicotinic α-7 receptor (Homo sapiens (Human), UniProt P36544). Description: Nicotinic α-7 receptor binding assay. Conditions: binding at the nicotinic α-7 receptor, carried out at Eurofins Pharma Services. The procedure:
The evaluation of binding at the nicotinic α-7 receptor was carried out at Eurofins Pharma Services.

5-HT3a receptor, sequence (P46098 24-478): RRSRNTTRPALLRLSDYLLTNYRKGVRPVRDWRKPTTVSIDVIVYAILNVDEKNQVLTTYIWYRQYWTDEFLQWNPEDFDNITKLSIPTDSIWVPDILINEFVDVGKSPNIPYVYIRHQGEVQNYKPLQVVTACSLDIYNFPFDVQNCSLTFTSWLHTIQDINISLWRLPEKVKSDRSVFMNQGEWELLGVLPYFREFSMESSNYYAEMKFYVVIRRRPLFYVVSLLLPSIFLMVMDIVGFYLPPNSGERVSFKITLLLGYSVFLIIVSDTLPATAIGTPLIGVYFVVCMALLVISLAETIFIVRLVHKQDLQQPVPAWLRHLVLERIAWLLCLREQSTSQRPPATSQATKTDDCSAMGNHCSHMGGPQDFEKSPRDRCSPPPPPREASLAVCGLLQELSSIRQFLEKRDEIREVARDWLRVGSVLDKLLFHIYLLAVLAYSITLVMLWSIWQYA
nicotinic α-7 receptor, sequence (P36544 23-502): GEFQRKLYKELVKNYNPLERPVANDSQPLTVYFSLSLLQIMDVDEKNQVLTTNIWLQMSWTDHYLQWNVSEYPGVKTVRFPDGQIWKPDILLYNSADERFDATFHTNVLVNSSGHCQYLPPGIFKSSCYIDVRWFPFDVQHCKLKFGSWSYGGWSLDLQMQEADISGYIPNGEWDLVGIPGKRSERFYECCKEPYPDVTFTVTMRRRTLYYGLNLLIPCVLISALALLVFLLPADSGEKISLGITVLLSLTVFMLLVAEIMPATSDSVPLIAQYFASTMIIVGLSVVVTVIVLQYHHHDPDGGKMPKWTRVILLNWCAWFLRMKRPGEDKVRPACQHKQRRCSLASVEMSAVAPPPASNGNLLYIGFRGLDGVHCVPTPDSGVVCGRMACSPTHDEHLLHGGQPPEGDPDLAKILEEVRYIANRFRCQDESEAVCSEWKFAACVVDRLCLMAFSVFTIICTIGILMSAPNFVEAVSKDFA

On to `CN1C2COCC1CC(OC(=O)c1c[nH]c3ccccc13)C2` [Reference 7, (1R,5S,7S)-9-methyl-3-oxa-9-azabicyclo[3.3.1]nonan-7-yl 1H-indole-3-carboxylate, reference compound], for which the IC50 in test [1] came to 0.0891 µM; in test [2], 1.66 µM.
Consider `CN1[C@@H]2COC[C@H]1C[C@@H](NC(=O)c1cn(-c3cnn(C)c3)c3ccccc13)C2` [Compound 15, 1-(1-methyl-1H-pyrazol-4-yl)-N-((1R,5S,7S)-9-methyl-3-oxa-9-azabicyclo[3.3.1]nonan-7-yl)-1H-indole-3-carboxamide, 2,2,2-trifluoroacetic acid salt], for which the IC50 in test [1] was 0.00348 µM; in test [1] (approximate IC50, calcium flux, 5-HT3a expressed in HEK-293T cells, 5HT 216 nM, read-out: IC50), 0.000662 µM; in test [2], greater than 10 µM.

As usually defined, the IC50 is the midpoint of a concentration-inhibition curve.
